Experimental data as given in patent publication US12168659B2, “Thioamide derivative and preparation method and application thereof” (Yunbaiyao Zhengwu Science and Technology (Shanghai) Co., …, priority 2022, dated 2024).

Columns and labels:
MEK1 = MEK1 (Homo sapiens, UniProt Q02750); experiment: Raf-MEK-ERK cascade kinase assay using recombinant protein (MEK1); type: biochemical; details: 10 μM ATP, active B-Raf (V599E), 30° C. 30 minutes
Method: (§1) Experimental purpose: The inhibitory activity of the compounds on MEK1 and MEK2 was measured by performing a Raf-MEK-ERK cascade kinase assay using recombinant protein.
(§2) Experimental method: 2 mg of dephosphorylated myelin basic protein (MBP) was dispersed in a 0.2 M sodium carbonate aqueous solution (pH=9.4). The mixed solution was then coated onto an enzyme-linked immunosorbent assay (ELISA) plate (U-shaped bottom plate) and left to stand overnight at 4° C. […] Compound solutions with serial concentrations were tested in triplicate wells. A mixture of 2 ng of inactivated MEK1 (or 4 ng of MEK2) and 50 ng of inactivated ERK2 was dissolved in a buffer solution (20 mM MOPS [pH=7.4], 0.1% 2-mercaptoethanol, 0.1% BSA) at room temperature, and then treated with the above serial solutions on a flat plate. The plate was covered with 1% bovine serum albumin (BSA) and pre-incubated for 10 minutes. […] After incubation at 30° C. for 30 minutes, phosphorylation of MBP by ERK was detected using peroxidase-labeled anti-phosphorylated MBP antibodies. Data curves were plotted and half maximal inhibitory concentration (IC50) values were calculated using XLFit.

[1] = tested on: human malignant melanoma cells (A375); experiment: Anti-proliferative activity, CCK-8 assay, A375; type: cell-based; details: A-375, 72 h incubation
Method: (§3) Experimental procedure: Sample solutions with a concentration of 20 μM were prepared and serially diluted 5-fold downwards to obtain 10 concentrations: 20000 nM, 4000 nM, 800 nM, 160 nM, 32 nM, 6.4 nM, 1.28 nM, 0.256 nM, 0.0512 nM and 0.01024 nM. The sample solutions were incubated with the above cell lines for 72 h. Then 10 μL of a CCK-8 solution was then added to each well, followed by a further 2 hours incubation. An optical density (OD) value was measured at 450 nm using a fully automated microplate reader. Data were processed using GraphPad Prism 7 to calculate IC50.

MEK2 = MEK2 (Homo sapiens, UniProt P36507); experiment: Raf-MEK-ERK cascade kinase assay using recombinant protein (MEK2); type: biochemical; details: 10 μM ATP, active B-Raf (V599E), 30° C. 30 minutes
Sequence of MEK2 (P36507 whole entry): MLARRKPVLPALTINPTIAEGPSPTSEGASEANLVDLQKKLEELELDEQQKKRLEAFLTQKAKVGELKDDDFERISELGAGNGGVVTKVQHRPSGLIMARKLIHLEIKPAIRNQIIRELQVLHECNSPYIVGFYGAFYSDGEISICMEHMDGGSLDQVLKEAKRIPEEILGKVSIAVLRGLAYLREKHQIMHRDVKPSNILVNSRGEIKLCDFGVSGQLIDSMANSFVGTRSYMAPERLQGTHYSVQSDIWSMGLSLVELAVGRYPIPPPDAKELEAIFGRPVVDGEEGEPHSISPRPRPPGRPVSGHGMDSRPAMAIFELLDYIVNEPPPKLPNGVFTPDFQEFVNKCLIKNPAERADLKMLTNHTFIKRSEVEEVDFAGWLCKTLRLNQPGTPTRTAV
Method: as §1, §2

[2] = tested on: human colon cancer cells (HCT116); experiment: Anti-proliferative activity, CCK-8 assay, HCT116; type: cell-based; details: HCT-116, 72 h incubation
Method: as §3

[3] = tested on: human colon cancer cells (HCT-15); experiment: Anti-proliferative activity, CCK-8 assay, HCT-15; type: cell-based; details: 72 h incubation
Method: as §3

[4] = tested on: human prostate cancer cells (PC-3); experiment: Anti-proliferative activity, CCK-8 assay, PC-3; type: cell-based; details: 72 h incubation
Method: as §3

[5] = tested on: human non-small cell lung cancer cells (A549); experiment: Anti-proliferative activity, CCK-8 assay, A549; type: cell-based; details: 72 h incubation
Method: as §3

[6] = Body weight change of experimental mice in the xenograft study; details: 3 mg/kg gavage, 30 days
Text: Experimental procedure: The study evaluated the inhibitory effect of compounds administered by gavage against human HCT116 subcutaneous xenograft tumors in the BALB/c nude mouse model by measuring tumor size and calculating tumor volume (TV), relative tumor volume (RTV), relative tumor proliferation rate (T/C), and anti-tumor efficacy (TGI).

[7] = tested on: human HCT116 subcutaneous xenograft tumors; experiment: In vivo anti-tumor assay, subcutaneous xenograft model; set-up: species or system BALB/c nude mouse; details: 3 mg/kg P.O. QD × 30 days; for Tumor growth inhibition, tumor volume change (FIG. 2): compared to the Trametinib group
Method: Experimental purpose: To evaluate the in vivo efficacy of the compounds in a subcutaneous xenograft model of human cancer cells in a Bagg's albino (BALB/c) nude mouse.
The tumor suppressive efficacy of the compounds was quantified by TGI (%) or relative tumor proliferation rate T/C (%). TGI (%) reflected the tumor growth inhibition rate. TGI(%) was calculated using the following equation: TGI(%)=[1−(mean tumor volume at the end of treatment in a treatment group-mean tumor volume at the start of treatment in the treatment group)/(mean tumor volume at the end of treatment in the solvent control group-mean tumor volume at the start of treatment in the solvent control group)]×100%.
T/C(%) was calculated using the following equation: T/C (%)=TRTV/CRTV×100%, where TRTV was an RTV of the treatment group, and CRTV was an RTV of the negative control group. The RTV was calculated from the results of tumor size measurements according to the following equation: RTV=Vt/V0, where V0 was a mean tumor volume measured on the day of first administration (i.e., day 0), Vt was a mean tumor volume measured on the day indicated, and TRTV and CRTV were obtained from data on the same day.

Sequence of MEK1 (Q02750 whole entry): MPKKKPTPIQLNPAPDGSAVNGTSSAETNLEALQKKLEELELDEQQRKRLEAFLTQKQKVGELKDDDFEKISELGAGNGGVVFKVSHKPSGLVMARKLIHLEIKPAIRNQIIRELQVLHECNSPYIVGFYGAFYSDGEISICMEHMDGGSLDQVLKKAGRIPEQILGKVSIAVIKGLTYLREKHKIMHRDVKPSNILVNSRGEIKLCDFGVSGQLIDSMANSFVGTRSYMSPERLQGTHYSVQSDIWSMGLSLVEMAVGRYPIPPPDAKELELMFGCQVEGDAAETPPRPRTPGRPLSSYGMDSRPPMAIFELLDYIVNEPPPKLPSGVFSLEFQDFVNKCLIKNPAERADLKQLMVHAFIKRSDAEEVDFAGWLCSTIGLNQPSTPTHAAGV

CC(=S)Nc1cccc(-n2c(=O)n(C)c(=O)c3c(Nc4ccc(I)cc4F)n(C)c(=O)c(C)c32)c1 [Compound 1] gave an IC50 (MEK1) of 1.21 nM, an IC50 [1] of 3.5 nM and an IC50 (MEK2) of 1.09 nM. It also gave an IC50 [2] of 2.9 nM, an IC50 [3] of 15.4 nM and an IC50 [4] of 2.4 nM. The IC50 [5] was 2.6 nM.
For CC(=S)Nc1cccc(-n2c(=O)n(C3CC3)c(=O)c3c(Nc4ccc(I)cc4F)n(C)c(=O)c(C)c32)c1 [Compound 2], the IC50 (MEK1) was 1.83 nM, the “Weight loss at the end of the experiment / toxicity (FIG. 1)” value [6] was “toxicity of Trametinib was higher than that of compounds 2, 8 and 12” and the IC50 [1] was 3.1 nM. The IC50 (MEK2) was 2.13 nM, the IC50 [2] was 2.6 nM and the IC50 [3] was 12.6 nM. The IC50 [4] was 3.6 nM, the “T/C (relative tumor proliferation rate)” value [7] was 9.62% and the “TGI (tumor growth inhibition rate)” value [7] was 98.72%. For the same compound, the “Tumor volume (Day 30)” value [7] was 165 ± 21 mm^3, the “Tumor growth inhibition, tumor volume change (FIG. 2)” value [7] was “better inhibitory effects” and the IC50 [5] was 3.1 nM.
For CC(=S)Nc1cccc(-n2c(=O)n(C(C)C)c(=O)c3c(Nc4ccc(I)cc4F)n(C)c(=O)c(C)c32)c1 [Compound 3], the IC50 (MEK1) was 0.9 nM, the IC50 [1] was 2.5 nM and the IC50 (MEK2) was 0.98 nM. For the same compound, the IC50 [2] was 2.1 nM, the IC50 [3] was 14.8 nM and the IC50 [4] was 1.9 nM. It also gave an IC50 [5] of 1.5 nM.
For CC(=S)Nc1cccc(-n2c(=O)n(C3CCCC3)c(=O)c3c(Nc4ccc(I)cc4F)n(C)c(=O)c(C)c32)c1 [Compound 4], the IC50 (MEK1) was 1.36 nM, the IC50 [1] was 3.9 nM and the IC50 (MEK2) was 1.05 nM. The IC50 [2] was 1.6 nM, the IC50 [3] was 9.8 nM and the IC50 [4] was 1.4 nM. The IC50 [5] was 2.4 nM.
Work on CCC(=S)Nc1cccc(-n2c(=O)n(C3CC3)c(=O)c3c(Nc4ccc(I)cc4F)n(C)c(=O)c(C)c32)c1 [Compound 5] yielded an IC50 [1] of 2.6 nM, an IC50 (MEK2) of 1.19 nM and an IC50 [2] of 3.8 nM. For the same compound, the IC50 [3] was 20.1 nM, the IC50 [4] was 3.3 nM and the IC50 [5] was 3.6 nM.
Compound Cc1c(=O)n(C)c(Nc2ccc(I)cc2F)c2c(=O)n(C3CC3)c(=O)n(-c3cccc(NC(=S)C4CC4)c3)c12 [Compound 6] has an IC50 (MEK1) of 1.88 nM, an IC50 [1] of 2.9 nM and an IC50 (MEK2) of 1.24 nM. For the same compound, the IC50 [2] was 1.6 nM, the IC50 [3] was 13.9 nM and the IC50 [4] was 2.8 nM. It also gave an IC50 [5] of 3.9 nM.
Cc1c(=O)n(C)c(Nc2ccc(I)cc2F)c2c(=O)n(C3CC3)c(=O)n(-c3cccc(NC(=S)C(C)C)c3)c12 [Compound 7] gave an IC50 (MEK1) of 0.95 nM, an IC50 [1] of 4.3 nM and an IC50 (MEK2) of 1.01 nM. For the same compound, the IC50 [2] was 2.7 nM, the IC50 [3] was 24.2 nM and the IC50 [4] was 2.1 nM. The IC50 [5] was 2.8 nM.
With Cc1c(=O)n(C)c(Nc2ccc(I)cc2F)c2c(=O)n(C3CC3)c(=O)n(-c3cccc(NC(=S)CO)c3)c12 [Compound 8] the IC50 (MEK1) was 1.57 nM, the “Weight loss at the end of the experiment / toxicity (FIG. 1)” value [6] was “toxicity of Trametinib was higher than that of compounds 2, 8 and 12” and the IC50 [1] was 4.7 nM. The IC50 (MEK2) was 2.08 nM, the IC50 [2] was 4.2 nM and the IC50 [3] was 25.8 nM. For the same compound, the IC50 [4] was 2.4 nM, the “T/C (relative tumor proliferation rate)” value [7] was 8.17% and the “TGI (tumor growth inhibition rate)” value [7] was 100.32%. The “Tumor volume (Day 30)” value [7] was 140 ± 26 mm^3, the “Tumor growth inhibition, tumor volume change (FIG. 2)” value [7] was “better inhibitory effects” and the IC50 [5] was 5.8 nM.
CC(=S)Nc1ccc(F)c(-n2c(=O)n(C3CC3)c(=O)c3c(Nc4ccc(I)cc4F)n(C)c(=O)c(C)c32)c1 [Compound 9] gave an IC50 (MEK1) of 2.29 nM, an IC50 [1] of 2.8 nM and an IC50 (MEK2) of 2.26 nM. The IC50 [2] was 5.2 nM, the IC50 [3] was 21.6 nM and the IC50 [4] was 1.9 nM. It also gave an IC50 [5] of 4.4 nM.
Work on CC(=S)Nc1cc(F)cc(-n2c(=O)n(C3CC3)c(=O)c3c(Nc4ccc(I)cc4F)n(C)c(=O)c(C)c32)c1 [Compound 10] yielded an IC50 (MEK1) of 2.01 nM, an IC50 [1] of 1.8 nM and an IC50 (MEK2) of 2.07 nM. The IC50 [2] was 6.4 nM, the IC50 [3] was 14.9 nM and the IC50 [4] was 2.3 nM. It also gave an IC50 [5] of 8.5 nM.
CC(=S)Nc1cc(-n2c(=O)n(C3CC3)c(=O)c3c(Nc4ccc(I)cc4F)n(C)c(=O)c(C)c32)ccc1F [Compound 11] showed an IC50 (MEK1) of 1.37 nM, an IC50 [1] of 2.4 nM and an IC50 (MEK2) of 1.54 nM. For the same compound, the IC50 [2] was 3.1 nM, the IC50 [3] was 21.8 nM and the IC50 [4] was 2.7 nM. It also gave an IC50 [5] of 3.4 nM.
For Cc1c(=O)n(C)c(Nc2ccc(I)cc2F)c2c(=O)n(C3CC3)c(=O)n(-c3cccc(NC(=S)CN)c3)c12 [Compound 12], the IC50 (MEK1) was 1.51 nM, the “Weight loss at the end of the experiment / toxicity (FIG. 1)” value [6] was “toxicity of Trametinib was higher than that of compounds 2, 8 and 12” and the IC50 [1] was 3.1 nM. The IC50 (MEK2) was 2.13 nM, the IC50 [2] was 3.6 nM and the IC50 [3] was 22.7 nM. For the same compound, the IC50 [4] was 2.3 nM, the “T/C (relative tumor proliferation rate)” value [7] was 7.47% and the “TGI (tumor growth inhibition rate)” value [7] was 101.08%. For the same compound, the “Tumor volume (Day 30)” value [7] was 128 ± 19 mm^3, the “Tumor growth inhibition, tumor volume change (FIG. 2)” value [7] was “better inhibitory effects” and the IC50 [5] was 3.1 nM.
For Cc1c(=O)n(C)c(Nc2ccc(I)cc2F)c2c(=O)n(C3CC3)c(=O)n(-c3cccc(NC(=S)C(=O)O)c3)c12 [Compound 13], the IC50 (MEK1) was 2.38 nM, the IC50 [1] was 4.2 nM and the IC50 (MEK2) was 2.64 nM. The IC50 [2] was 5.2 nM, the IC50 [3] was 31.7 nM and the IC50 [4] was 4.5 nM. For the same compound, the IC50 [5] was 6.4 nM.
In the case of CC(=O)Nc1cccc(-n2c(=O)n(C3CC3)c(=O)c3c(Nc4ccc(I)cc4F)n(C)c(=O)c(C)c32)c1 [Trametinib, reference compound], the IC50 [1] is reported as 12.5 nM, the IC50 [2] is reported as 32.7 nM and the IC50 [3] is reported as 98.3 nM. The IC50 [4] was 12.6 nM, the “TGI (tumor growth inhibition rate)” value [7] was 89.80% and the “Tumor volume (Day 30)” value [7] was 305 ± 34 mm^3. The IC50 [5] was 33.2 nM.
